Measured values published in publication PMC6749073 (Frontiers in Pharmacology, 2019).

Key:
[1] = tested on: BEAS-2B normal human lung epithelial cell line; assay: MTT cell viability assay, BEAS-2B; format: cell-based
Procedure: (§1) Cells were seeded at a density of 1 × 10^4 cells per well in 96-well plates. The following day, these cells were washed with PBS and exposed to different concentrations of testing compounds in culture medium for 48 h. MTT solution (10 μl at 5 mg/ml) was added to each well. After 4 h of incubation at 37°C, the medium was removed, and the insoluble precipitate was dissolved in 100 μl DMSO (Sigma, St. Louis, MO, USA). The absorbance of the dissolved solution at 490 nm was measured using a microplate reader (TECAN A-5082; Megllan, Austria). Cell viability percentages were calculated by dividing the mean optical density (OD) of compound-containing wells by that of the control wells. Each experiment was replicated three times. The IC50 of testing drugs was calculated with Statistical Product and Service Solutions software (SPSS, version 16.0).

A549/DDP xenograft tumor = details: diplatin 120 mg/kg vs DDP 6 mg/kg and CBP 60 mg/kg
Procedure: (§3) Cells in logarithmic growth were washed with PBS and suspended in serum-free medium. Portions of the suspension (5 × 10^6 cells in 0.1 ml/mouse) were mixed at a 3:1 ratio with Matrigel basement membrane matrix and injected subcutaneously into the mice. Following 2 weeks of growth, tumor tissues were cut into multiple 2 × 2 × 2 mm^3 pieces and implanted using a range trocar subcutaneously (s.c. injection) into the left forepaw armpit of each mouse ([Jiang et al., 2017]). Treatment with pharmacology was started when the tumors reached an average volume of 100–200 mm^3. The mice were randomly divided into six groups (n = 14/group).
(§4) Body weight and tumor size were assessed every 3 days. Tumor size was measured using a caliper, the volumes were calculated according to the following standard formula: V = (L × W^2)/2 (V = tumor volume, L = largest diameter of tumor, W = smallest diameter of tumor). On day 25, all mice were sacrificed by cervical dislocation, and the tumors were removed and weighed.

H460 cells = assay: Cell cycle by PI flow cytometry, H460; format: cell-based, human; details: diplatin 50 µM, DDP 5 µM, CBP 100 µM
Procedure: (§2) Then, the cells were trypsinized, washed with PBS, and fixed in 1.5 ml 95% ethanol and left at 4°C overnight. They were then incubated with RNase and stained with propidium iodide (PI) (Multi Sciences Biotech Co., Ltd). PI absorbance was determined using a Cytomics FC500 Flow Cytometer (Beckman Coulter, USA).

H1650 = assay: MTT cell viability assay, H1650; format: cell-based, human; details: 48 h
Procedure: as §1

A549 = assay: MTT cell viability assay, A549; format: cell-based, human; details: 48 h
Procedure: as §1

[2] = tested on: JNK, Erk1/2 and p38 phosphorylation in A549 and H292 cells; assay: Western blot of MAPK phosphorylation (JNK, Erk1/2, p38); format: cell-based, human
Procedure: Cells were treated with diplatin, DDP, and CBP before being lysed. After centrifugation at 12,000 rpm for 10 min, an equal amount of protein from each group was subjected to electrophoresis on 10% SDS-PAGE gels. The proteins in the gel were then electroblotted onto polyvinylidene fluoride (PVDF) membranes (Millipore, Massachusetts, USA). After incubation in the blocking buffer (1× TBS, 0.1% Tween-20, and 5% w/v dry nonfat milk) for 1 h at room temperature, the membranes were incubated with the primary antibody at 4°C overnight. Next, membranes were rinsed with TBST, and then secondary antibodies were applied (LI-COR, USA) at room temperature for 1 h. Immunoreactive bands were visualized by a two-color infrared imaging system (Odyssey, LI-COR, USA).

A549 and H292 cells = assay: EdU incorporation assay; format: cell-based, human; details: 48 h; diplatin 50 μM, DDP 5 μM, CBP 100 μM
Procedure: Cell proliferation was analyzed by measurement of DNA synthesis as identified by the EdU cell proliferation assay, which was applied in accordance with product manufacturer instructions. Cells (5 × 10^4 cells per well) were cultured in triplicate in 24-well plates and treated with testing compounds for 48 h. Then the cells were incubated with 50 μM EdU for an additional 2 h at 37°C. Cells were fixed with 4% formaldehyde for 30 min and were permeabilized with 0.5% Triton X-100 for 10 min at room temperature. After washing with PBS three times, cells were incubated for 30 min with 1× Apollo reaction cocktail. Finally, cells were stained with 10 μg/ml of Hoechst 33342 for 30 min and then imaged using a confocal laser scanning microscope (FV1000; Olympus, Japan). The percentage of EdU^+ cells was quantified using ImageJ software by dividing the mean OD of EdU^+ cells to the mean OD of Hoechst-labeled cells.

Calu-3 = assay: MTT cell viability assay, Calu-3; format: cell-based, human; details: 48 h
Procedure: as §1

LTEP-A-2 = assay: MTT cell viability assay, LTEP-A-2; format: cell-based, human; details: 48 h
Procedure: as §1

[3] = Biodistribution of Pt by atomic absorption spectrometry in A549 xenograft nude mice; format: in vivo; details: 6 h after administration; diplatin 120 mg/kg vs CBP 70 mg/kg (equivalent Pt dose), i.v.
Procedure: At each time point of 10 min, 2 h, 6 h, and 24 h after administration, six mice were sacrificed. The tumors, organs/tissues, and blood were immediately collected. Then, Pt concentration was measured by atomic absorption spectrometry, counting the weight/volume of the tumors, tissues, organs, or blood.
At each time point of 10 min, 2 h, 6 h and 24 h after administration, 6 mice were sacrificed. The tumors, organ/tissue, and blood were immediately collected. Then, Pt concentration was measured by atomic absorption spectrometry, counting the weight/volume of the tumors, tissues or organs/blood.

HCC827 = assay: MTT cell viability assay, HCC827; format: cell-based, human; details: 48 h
Procedure: as §1

H1299 = assay: MTT cell viability assay, H1299; format: cell-based, human; details: 48 h
Procedure: as §1

ICR mice = assay: General neurotoxicity observation in ICR mice; format: in vivo; details: i.v.
From the text: The animals were observed daily for any evident symptoms of sickness. Changes in their appearance (e.g., kyphosis and altered grooming), behavior (altered nesting) and activity (altered exploring) were monitored for general neurotoxicity assessment.

LTEP-A-2 cells = assay: Cell cycle by PI flow cytometry, LTEP-A-2; format: cell-based, human; details: diplatin 50 µM, DDP 5 µM, CBP 100 µM
Procedure: as §2

[4] = Pharmacokinetic and toxicokinetic characterization in Beagle dogs; format: in vivo; details: single dose 10, 20, 40 mg/kg
From the text: Furthermore, AI was employed to evaluate the accumulated toxicity of the two complexes.

rats = assay: Renal pathology (H&E) in rats; format: in vivo; details: 7.5, 15, and 30 mg/kg twice a week for 4 weeks
Procedure: Total 30 rats were employed in the experiments, 20 rats were euthanized with isoflurane 3 days after the last administration, and the kidneys were excised and examined by the H&E staining, and the remaining 10 rats were handled after the recovery period (two weeks after the last administration). We found drug-related renal changes were appeared in the rats, especially in the high dose group (30 mg/kg). Of all the changes, the renal tubular epithelium denaturation/regeneration and tubular dilation are the most obvious, which are early appeared after 7.5 mg/kg treatment at both last administration and during recovery period.

A549 cells = assay: Cell cycle by PI flow cytometry, A549; format: cell-based, human; details: diplatin 50 μM, DDP 5 μM, CBP 100 μM
Procedure: as §2

A549 xenograft tumors = assay: A549 xenograft tumor growth in nude mice; format: in vivo; details: 30, 60, 120 mg/kg, tail vein every 3 days
Procedure: as §3, §4

H292 cells = assay: Cell cycle by PI flow cytometry, H292; format: cell-based, human; details: diplatin 50 μM, DDP 5 μM, CBP 100 μM
Procedure: as §2

Structure (SMILES): CCN(CC)CCCCC1C(=O)[O][Pt][O]C1=O.N[C@@H]1CCCC[C@H]1N.O=P(O)(O)O [Diplatin]
- IC50 ([1]; BEAS-2B normal lung epithelial cells, MTT, 48 h): 47.9 µM
- suppression of the viability of BEAS-2B cells compared to DDP ([1]; vs DDP): threefold less suppression
- antitumor activity in A549/DDP xenograft tumor (A549/DDP xenograft tumor): more potent antitumor activities than DDP and CBP
- effect on cell cycle distribution (H460 cells): failed to arrest the cells in the G2/M phase
- IC50 (H1650): 36.6 µM
- IC50 (A549): 102 µM
- concentration of apparent maximum JNK phosphorylation ([2]; 0.5 h exposure): 25 µM
- Erk1/2 and p38 phosphorylation ([2]; diplatin 10, 25, 50 μM, DDP 5 μM, CBP 100 μM): failed to induce Erk1/2 and p38 phosphorylation
- JNK phosphorylation levels ([2]; diplatin 10–50 μM, DDP 10 μM, 0.5 h): elevated
- EdU incorporation (A549 and H292 cells): dramatically decreased
- IC50 (Calu-3): 161 µM
- IC50 (LTEP-A-2): 24.6 µM
- Pt accumulation in the kidneys, times higher than CBP [3]: 2.2 times
- IC50 (HCC827): 25 µM
- IC50 (H1299): 57.5 µM
- animals showing signs of mild kyphosis and piloerection (ICR mice; 240 mg/kg twice a week for 4 weeks): approximately 20%
- changes in behavior (altered nesting) and activity (altered exploring) (ICR mice; 60, 120, or 240 mg/kg twice a week for 4 weeks): no notable changes
- effect on cell cycle distribution (LTEP-A-2 cells): significant accumulation of cells in G2/M phase
- time of maximum platinum levels in the plasma [4]: 0.33 h
- renal pathology in rats (rats): nephrotoxicity
- effect on cell cycle distribution (A549 cells): significant accumulation of cells in G2/M phase
- effect on growth of A549 xenograft tumors (A549 xenograft tumors): dose-dependently inhibited the growth
- effect on cell cycle distribution (H292 cells): failed to arrest any portion of the cell cycle
